These results are taken from ChEMBL document CHEMBL1201862, “PubChem BioAssay data set” (2004).

In assay [1] the target is Eukaryotic translation initiation factor 4H (Homo sapiens, UniProt Q15056). As to the kind of experiment: eIF4H inhibition in translation initiation, SAR follow-up (AID 435011). It is filed as functional.
The target of assay [2] is Polyadenylate-binding protein 1 (Homo sapiens, UniProt P11940). As to the kind of experiment: PABP inhibition in translation initiation, SAR follow-up (AID 435018). It counts as functional.
Sequence of Polyadenylate-binding protein 1 (P11940 whole entry): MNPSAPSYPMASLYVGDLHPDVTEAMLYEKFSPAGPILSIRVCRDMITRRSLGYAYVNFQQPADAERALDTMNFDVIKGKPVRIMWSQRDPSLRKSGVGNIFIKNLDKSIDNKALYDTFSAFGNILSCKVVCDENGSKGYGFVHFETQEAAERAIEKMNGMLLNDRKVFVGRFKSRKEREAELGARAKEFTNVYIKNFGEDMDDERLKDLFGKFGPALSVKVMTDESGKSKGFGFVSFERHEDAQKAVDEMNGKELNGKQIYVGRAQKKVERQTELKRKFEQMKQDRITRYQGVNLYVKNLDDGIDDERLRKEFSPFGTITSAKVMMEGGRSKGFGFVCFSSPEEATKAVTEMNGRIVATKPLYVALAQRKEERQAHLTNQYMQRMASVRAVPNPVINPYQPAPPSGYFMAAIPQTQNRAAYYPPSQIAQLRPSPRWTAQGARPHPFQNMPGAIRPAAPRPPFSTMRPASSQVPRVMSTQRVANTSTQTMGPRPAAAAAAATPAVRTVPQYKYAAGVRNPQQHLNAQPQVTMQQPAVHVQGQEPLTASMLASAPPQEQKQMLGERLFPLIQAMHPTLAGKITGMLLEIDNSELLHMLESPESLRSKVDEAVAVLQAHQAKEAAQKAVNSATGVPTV
For a further assay, the target named is T1, Hexokinase HKDC1 (Homo sapiens, UniProt Q2TB90).
T1 sequence (Q2TB90 whole entry): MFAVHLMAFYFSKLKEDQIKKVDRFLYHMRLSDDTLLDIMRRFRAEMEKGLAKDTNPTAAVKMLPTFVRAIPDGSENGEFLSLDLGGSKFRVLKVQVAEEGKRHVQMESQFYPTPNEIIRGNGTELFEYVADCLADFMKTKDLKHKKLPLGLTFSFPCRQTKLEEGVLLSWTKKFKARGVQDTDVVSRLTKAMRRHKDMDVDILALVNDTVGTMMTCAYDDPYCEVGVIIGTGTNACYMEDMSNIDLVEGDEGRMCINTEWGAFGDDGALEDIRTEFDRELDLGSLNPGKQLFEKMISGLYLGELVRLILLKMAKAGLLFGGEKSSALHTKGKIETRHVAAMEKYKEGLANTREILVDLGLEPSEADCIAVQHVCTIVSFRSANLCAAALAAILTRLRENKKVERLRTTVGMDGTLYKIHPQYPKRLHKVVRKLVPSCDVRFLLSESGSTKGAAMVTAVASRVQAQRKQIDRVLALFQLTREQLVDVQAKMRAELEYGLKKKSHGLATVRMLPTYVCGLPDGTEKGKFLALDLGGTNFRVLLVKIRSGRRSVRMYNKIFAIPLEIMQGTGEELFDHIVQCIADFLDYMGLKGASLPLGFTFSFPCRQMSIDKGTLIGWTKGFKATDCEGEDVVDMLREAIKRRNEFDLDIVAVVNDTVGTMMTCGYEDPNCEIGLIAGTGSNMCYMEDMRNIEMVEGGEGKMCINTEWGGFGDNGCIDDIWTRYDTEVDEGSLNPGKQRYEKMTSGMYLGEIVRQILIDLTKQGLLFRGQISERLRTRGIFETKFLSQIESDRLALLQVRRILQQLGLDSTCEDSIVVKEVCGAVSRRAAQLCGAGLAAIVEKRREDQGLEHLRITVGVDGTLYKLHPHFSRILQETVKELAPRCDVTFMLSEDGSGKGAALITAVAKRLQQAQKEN
As to the kind of experiment: HKDC1 hexokinase inhibitors, dose response, biochemical, W721R variant (AID 504729). It is filed as functional.

The target of a further assay is Trypsin (Sus scrofa, UniProt P00761). Briefly: porcine trypsin inhibitors, dose response, selectivity assay for Rce1 protease inhibitor project, biochemical, quenched peptide fluorescence, cherry-pick (AID 488789).
Sequence of Trypsin (P00761 whole entry): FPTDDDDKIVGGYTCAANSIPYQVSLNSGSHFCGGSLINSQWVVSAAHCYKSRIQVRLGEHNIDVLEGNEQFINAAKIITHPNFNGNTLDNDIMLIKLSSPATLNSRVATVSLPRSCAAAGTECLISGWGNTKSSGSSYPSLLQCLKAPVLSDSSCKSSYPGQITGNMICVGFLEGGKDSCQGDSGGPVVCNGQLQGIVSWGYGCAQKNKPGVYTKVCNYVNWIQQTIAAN
The target of assay [3] is CAAX prenyl protease 2 (Saccharomyces cerevisiae S288c, UniProt Q03530). It is filed as biochemical.
Sequence of CAAX prenyl protease 2 (Saccharomyces cerevisiae S288c, UniProt Q03530) (Q03530 whole entry): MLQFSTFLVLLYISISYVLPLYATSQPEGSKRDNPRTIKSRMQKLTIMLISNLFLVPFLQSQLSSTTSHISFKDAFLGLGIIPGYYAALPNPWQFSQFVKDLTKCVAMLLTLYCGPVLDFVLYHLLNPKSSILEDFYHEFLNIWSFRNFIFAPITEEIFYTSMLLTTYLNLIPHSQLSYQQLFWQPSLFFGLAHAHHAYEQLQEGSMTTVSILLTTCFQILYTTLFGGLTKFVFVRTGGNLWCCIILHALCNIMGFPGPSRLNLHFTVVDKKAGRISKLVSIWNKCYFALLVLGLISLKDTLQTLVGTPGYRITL
Assay [4] concerns the target T2, CAAX prenyl protease 2 (Homo sapiens, UniProt Q9Y256).
T2 sequence (Q9Y256 whole entry): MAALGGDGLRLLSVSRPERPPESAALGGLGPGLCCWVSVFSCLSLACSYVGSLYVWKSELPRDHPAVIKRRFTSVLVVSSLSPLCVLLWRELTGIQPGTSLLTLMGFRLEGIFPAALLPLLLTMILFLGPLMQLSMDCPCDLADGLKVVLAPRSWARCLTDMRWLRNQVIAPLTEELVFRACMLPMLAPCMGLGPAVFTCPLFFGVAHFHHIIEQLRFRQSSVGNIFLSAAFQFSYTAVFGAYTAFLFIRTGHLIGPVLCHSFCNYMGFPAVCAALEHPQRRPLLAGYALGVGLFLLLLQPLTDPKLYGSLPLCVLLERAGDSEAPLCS
Briefly: human Rce1 protease inhibitors, dose response, biochemical, yeast membranes, quenched-peptide fluorescence, cherry-pick (AID 588849).

Structures are written as SMILES. Calls of active or inactive are those of the source. A value given as a limit tells only on which side of the number the result lay.

For `COc1ccc(NC(=O)CSc2ccc(-c3ccco3)nn2)c(OC)c1`, the results for the IC50 (in assay [1]; in assay [2]; on Hexokinase HKDC1) were 86.5 µM (active), > 100 µM (inactive) and 5.8 µM (active), respectively.
On to `CCn1c(=O)c(-c2ccccc2)c(O)c2ccccc21`, for which the AC50 at Trypsin was 7.88 µM (active); on CAAX prenyl protease 2 [3] it was 11.2 µM (active); at CAAX prenyl protease 2 [4], 13.9 µM (active).
For `Cc1ccc(-c2nc3ccc(C)cn3c2CC(=O)N(C)C)cc1`, the AC50 on CAAX prenyl protease 2 [3] was 16.8 µM (active).

A word on the IC50: it is the concentration that inhibits the measured activity by half. By AC50 is commonly meant the concentration giving half of the maximal activity seen.
